The values that follow come from US20200237736A1, “METHODS FOR PREVENTING OR TREATING CANCER RESISTANCE TO EGFR INHIBITION” (INSERM (INSTITUT NATIONAL DE LA SANTE ET DE LA RECHERCHE …, priority 2017, published 2020).

The test system of data set [1] is NSCLC. The settings on record: first-line treatment; Soria et al. 2018; cited from earlier work.
Data set [2] concerns EGFR-T790M PC9 cells containing the EGFR-C797S CRISPR-barcode. Conditions: mouse, in vivo.
Experimental: From day 39, the mice were treated three times per week. The mean tumor size ±SEM is represented for the different groups (5 mice per group).
The proportions of the barcode in the cells prior to mouse injection was analyzed in parallel and arbitrarily set to 1. (B) For each group, the mean of the values (±SEM) shown in A is represented.
Gefitinib resistant PC9 cells (EGFR-T790M) containing the EGFR-C797 CRISPR-barcodes were mixed with matrigel and subcutaneously inoculated in the left and right flank (2×10^6 cells per site) of male SCID mice. The size of the tumors was measured by caliper every 3-4 days. […] From day 39, the mice were treated three times per week. Tumors from sacrificed mice were dissected, and gDNA was derived using the DNeasy Blood & Tissue Kit (Qiagen).
Data set [3] concerns EGFR-C797S cells within PC9-(EGFR-T790M) cells. As to the kind of experiment: Colony forming assay, EGFR-C797S barcoded PC9-(EGFR-T790M) cells. The class given is cell-based. The settings on record: osimertinib 1 μM alone, 14 days; FIG. 3B.
Data set [4] has as its system parental, EGFR-T790M and EGFR-T790M/C797S PC9 cells.
Data set [5] has as its system EGFR-C797S cells within PC9-(EGFR-T790M) cells. As to the kind of experiment: CRISPR-barcoding qPCR: EGFR-C797S barcode in PC9-(EGFR-T790M) cells. The class given is cell-based. Conditions: osimertinib 1 μM alone, nine days; FIG. 3A. From the text:
(§1) The set of silent mutations is designed to enable PCR specificity and to avoid recognition by the corresponding sgRNA used to cleave the endogenous sequence. […] Immediately after transfection, the cells were pooled in the same flask.
(§2) gDNA was extracted using the NucleoSpin Tissue kit (Macherey-Nagel). To avoid potential amplification from ssODN molecules not integrated in the correct genomic locus, one of the two primers was designed to target the endogenous genomic sequence flanking the region sharing homology with the ssODNs.
Background: Quantitative PCR measures a nucleic acid by following its amplification.

The next data set concerns the target kinase. Conditions: cited from earlier work.
Another data set deals with breast cancer cell lines. The settings on record: Liu et al. 2013; cited from earlier work.
A further data set concerns EGFR. Kind of data set: Immunoblot, EGFR expression in PC9 cells. Format: cell-based. Conditions: 3 days, sorafenib 5 μM or SC-1 20 μM, FIG. 11B. For orientation: A western blot detects proteins with antibodies after separation by electrophoresis.
The subject of data set [6] is STAT3 phosphorylation. Conditions: different cell models, including EGFR-wild type NSCLC cells; Su et al., 2015; Wang et al., 2014; cited from earlier work.
Data set [7] concerns PC9 cells containing the EGFR-T790M mutation. Kind of data set: CRISPR-barcoding qPCR: fraction of EGFR-T790M barcode in PC9 cells in the presence of gefitinib. Format: cell-based. Conditions: SC-1 20 μM, gefitinib 1 μM, 5 days; FIG. 11A.
Text: (§3) Cells were transfected with a Nucleofector II device (Lonza) using the Amaxa Nucleofector kit (Lonza) and electroporation program recommended by the manufacturer.
as §1, §2, §3, §1

The subject of data set [8] is STAT3 phosphorylation. Kind of data set: Immunoblot, STAT3 phosphorylation in PC9 cells. The class given is cell-based. Conditions: for STATS phosphorylation: PC9 cells, 3 days, sorafenib 5 μM or SC-1 20 μM, FIG. 11B. The method, then: (§4) Immunoblot was performed using the indicated antibodies.
FIG. 11: SC-1 prevents resistance of NSCLC cells to EGFR TKI. […] The mean values (±SEM) representative of four independent experiments are represented. (B).
(§5) Cells were washed once with phosphate-buffered saline (PBS) and lysed on ice in a buffer containing 50 mM Hepes pH 7.6, 150 mM NaCl, 5 mM EDTA, 1% Nonidet P-40, 20 mM NAF, 2 mM sodium orthovanadate, supplemented with protease inhibitor mini tablets (Thermo Scientific). Lysates were cleared by centrifugation at 14,000 g during 15 min at 4° C. and protein concentrations were determined by using the Bradford protein assay (Bio-Rad). Sodium dodecyl sulfate (SDS) loading buffer was added to equal amounts of lysate, followed by SDS-polyacrylamide gel electrophoresis (SDS-PAGE) and transfer to polyvinylidene fluoride (PVDF) membrane (Thermo Scientific). Membranes were analyzed by chemiluminescence using a ChemiDoc imaging system (Biorad). All primary antibodies were purchased from Cell Signaling. Secondary antibodies were purchased from Santa Cruz.

Data set [9] deals with EGFR wild-type NSCLC cell lines. The settings on record: Wang et al 2014; cited from earlier work.
Data set [10] concerns EGFR-wild type NSCLC cells. The settings on record: different cell models, including EGFR-wild type NSCLC cells; Su et al., 2015; Wang et al., 2014; cited from earlier work.
In data set [11] the test system is NSCLC. The settings on record: treatment of NSCLC; Shepherd et al 2005; cited from earlier work.
A further data set has as its system MAPK activation. As to the kind of experiment: Immunoblot, MAPK activation in PC9 cells. The class given is cell-based. The settings on record: sorafenib 5 μM, 2 or 6 hours; FIG. 4A. The method, then: as §4, §5
Another data set has as its system MYC transcription factor. As to the kind of experiment: Immunoblot, MYC expression in PC9 cells. Conditions: sorafenib 5 μM, two days; parental and EGFR-T790M PC9 cells; FIG. 4B. The class given is cell-based. The method, then: as §4, §5

Turning to `C=CC(=O)Nc1cc(Nc2nccc(-c3cn(C)c4ccccc34)n2)c(OC)cc1N(C)CCN(C)C` [osimertinib], in the data set on NSCLC [1], the “adverse effects compared to first/second generation TKIs” value was “less severe adverse effects” and the “efficacy compared to first/second generation TKIs” value was “superior efficacy”. Besides, the “growth of the tumors / tumor size” value in data set [2] is on record as “initially inhibited, but it eventually resumed after a few weeks”. The “amplification of EGFR-C797S cells (colony forming assay)” value in data set [3] was “induced a strong amplification”. Also, the “cell growth (colony forming assay)” value in data set [4] was “inhibited cell growth”. In addition, the “amplification of EGFR-C797S cells (qPCR)” value in data set [5] is recorded as “induced a strong amplification”.

As to `N#Cc1ccc(Oc2ccc(NC(=O)Nc3ccc(Cl)c(C(F)(F)F)c3)cc2)cc1` [SC-1, N-[4-Chloro-3-(trifluoromethyl)phenyl]-N′-[4-(4-cyanophenoxy)phenyl]-urea], the kinase-inhibition activity entry at kinase is on record as “no kinase-inhibition activity”. In addition, the apoptosis entry (in the data set on breast cancer cell lines; in data set [9]) was “induces apoptosis” each time. Also, the EGFR expression result in the data set with EGFR is reported as “down-regulated”. The pSTAT3 inhibition entry in the data set on STAT3 phosphorylation [6] is given as “pSTAT3 inhibition”. For the same compound, the “amplification of EGFR-T790M containing cells in the presence of gefitinib (qPCR)” value in [7] is “could mimic the effects of sorafenib”. The STATS phosphorylation result in the data set with STAT3 phosphorylation [8] is reported as “inhibited”. The growth inhibition entry in data set [10] is given as “growth inhibition”.

With `C#Cc1cccc(Nc2ncnc3cc(OCCOC)c(OCCOC)cc23)c1` [erlotinib], the clinical response rate result with NSCLC [11] is “about 8.9%”.

Turning to `CNC(=O)c1cc(Oc2ccc(NC(=O)Nc3ccc(Cl)c(C(F)(F)F)c3)cc2)ccn1` [sorafenib], the MAPK activation result in the data set on MAPK activation is recorded as “no effect”. Besides, the “expression of MYC transcription factor” value in the data set with MYC transcription factor is given as “down-regulated”. The STATS phosphorylation result in the data set on STAT3 phosphorylation [8] is “inhibited”. Moreover, the STAT3 phosphorylation entry in the data set on STAT3 phosphorylation [8] (sorafenib 5 μM, 2 or 6 hours, FIG. 4) is reported as “rapid inhibition”.
